The values that follow come from the supplement of paper PMC11208160.
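Also: IS621 recombinase and bridge RNA in Escherichia coli cells.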

This data set is described as follows: recombinant barcode read abundance after kanamycin selection (control-corrected) (log10(CPM+1)); higher = more efficient recombination; sequences stand for … in AGTGCAGAGAAAATCGGCCAGTTTTCTCTGCCTGCAGTCCGCATGCCGT…AGATTTATGCAGCGGACTGCCTTTCTCCCAAAGTGATAAACCGGACAGTATCATGGACCGGTTTTCCCGGTAATCCGTATTTGCAAGGTTGGTTTCACT; site = the 11-nt target. Put shortly:
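Recombination efficiency comes from barcode counts at recombinant junctions, converted to counts per million, averaged and corrected against the control. Values appear as log10(CPM+1). They were obtained from a pooled E. coli screen in which each oligo paired a target with an IS621 bridge RNA target-binding loop, and cells were plated in duplicate on chloramphenicol/ampicillin LB agar or on chloramphenicol/ampicillin/kanamycin with 0.1 mM IPTG.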
Regarding “CGTGGGCCTTGGGTTCTAACCTGTTGCCT (site CCTGGGCCTAG)”, the “recombinant barcode read abundance (log10)” value is 0.208.
Under “CGTGGGCCTTGGGTTCTAACCTGTTGCCT (site CGTGGGCCTAG)” stands 0.0583; under “CGTGGGCCTTGGGTTCTAACCTGTTGCCT (site CTTGGGCCTAG)”, 0.0694.
As for “CGTGGTCCTTGGGTTCTAACCTGTTGCCT (site CGTGGTCCTAA)”, the “recombinant barcode read abundance (log10)” value is 0.0142.
On to “CGTGGTCCTTGGGTTCTAACCTGTTGCCT (site CGTGGTCCTAC)”, for which the “recombinant barcode read abundance (log10)” value was 0.413.
Take “CGTGGTCCTTGGGTTCTAACCTGTTGCCT (site CGTGGTCCTAG)”: the “recombinant barcode read abundance (log10)” value was 1.26.
On to “CGTGGTCCTTGGGTTCTAACCTGTTGCCT (site CGTGGTCCTAT)”, for which the “recombinant barcode read abundance (log10)” value stood at 0.657.
For “CGTTAACCTTGGGTTCTAACCTGTTGCGT (site CGTAAACCTAC)” the value was 0.423; for “CGTTAACCTTGGGTTCTAACCTGTTGCGT (site CGTCAACCTAC)”, 1.48; for “CGTTAACCTTGGGTTCTAACCTGTTGCGT (site CGTGAACCTAC)”, 0.177.
In the case of “CGTTAACCTTGGGTTCTAACCTGTTGCGT (site CGTTAACCTAC)”, the “recombinant barcode read abundance (log10)” value is 1.37.
For “CGTTAGACTTGGGTTCTAACCTGTTGCCT (site CGTAAGACTAG)”, the “recombinant barcode read abundance (log10)” value was determined as 0.113.
With “CGTTAGACTTGGGTTCTAACCTGTTGCCT (site CGTCAGACTAG)”, the “recombinant barcode read abundance (log10)” value stood at 0.267.
For “CGTTAGACTTGGGTTCTAACCTGTTGCCT (site CGTGAGACTAG)” the value was 0.147.
Under “CGTTAGACTTGGGTTCTAACCTGTTGCCT (site CGTTAGACTAG)” stands 0.469; under “CGTTCAACTTGGGTTCTAACCTGTTGCCT (site CGTTCAACTAG)”, 0.0537; under “CGTTCAACTTGGGTTCTAACCTGTTGCCT (site CGTTCCACTAG)”, 0.0618.
For “CGTTCAACTTGGGTTCTAACCTGTTGCCT (site CGTTCGACTAG)” the value was 0.153; for “CGTTCAACTTGGGTTCTAACCTGTTGCCT (site CGTTCTACTAG)”, 0.0864; for “CGTTCATCTTGGGTTCTAACCTGTTGCCT (site CGATCATCTAG)”, 0.
As to “CGTTCATCTTGGGTTCTAACCTGTTGCCT (site CGCTCATCTAG)”, the “recombinant barcode read abundance (log10)” value was 0.0301.
For “CGTTCATCTTGGGTTCTAACCTGTTGCCT (site CGGTCATCTAG)” the value was 0.0446.
Take “CGTTCATCTTGGGTTCTAACCTGTTGCCT (site CGTTCATCTAG)”: the “recombinant barcode read abundance (log10)” value amounted to 0.0763.
Turning to “CGTTCTACTTGGGTTCTAACCTGTTGCCT (site CGTTCAACTAG)”, the “recombinant barcode read abundance (log10)” value was 0.0719.
For “CGTTCTACTTGGGTTCTAACCTGTTGCCT (site CGTTCCACTAG)” the value was 0.286.
In the case of “CGTTCTACTTGGGTTCTAACCTGTTGCCT (site CGTTCGACTAG)”, the “recombinant barcode read abundance (log10)” value turned out to be 0.0414.
For “CGTTCTACTTGGGTTCTAACCTGTTGCCT (site CGTTCTACTAG)” the value was 0.00743; for “CGTTGATCTTGGGTTCTAACCTGTTGCCT (site CGTTGATCTAG)”, 0.234; for “CGTTGATCTTGGGTTCTAACCTGTTGCCT (site CGTTGTTCTAG)”, 0.0674.
Turning to “CGTTGTCCTTGGGTTCTAACCTGTTGCAA (site CCTTGTCCTCT)”, the “recombinant barcode read abundance (log10)” value turned out to be 0.00991.
For “CGTTGTCCTTGGGTTCTAACCTGTTGCAA (site CGTTGTCCTTT)” the value was 0.347.
For “CGTTGTTCTTGGGTTCTAACCTGTTGCCT (site CGTTGATCTAG)” the value was 0.0873; for “CGTTGTTCTTGGGTTCTAACCTGTTGCCT (site CGTTGTTCTAG)”, 0.163.
In the case of “CTAAAAGCTTGGGTTCTAACCTGTTGCCA (site CTAAAAGCTTG)”, the “recombinant barcode read abundance (log10)” value worked out at 0.493.
Under “CTAAAAGCTTGGGTTCTAACCTGTTGCCA (site TACTCCTCTCC)” stands 0.0219; under “CTAAAGTCTTGGGTTCTAACCTGTTGCAC (site CTAAAGTCTGG)”, 0.0578; under “CTAAAGTCTTGGGTTCTAACCTGTTGCAC (site CTAAAGTCTGT)”, 1.51.
For “CTAAAGTCTTGGGTTCTAACCTGTTGCCC (site CTAAAGTCTGG)” the value was 0.4.
“CTAAAGTCTTGGGTTCTAACCTGTTGCCC (site CTAAAGTCTGT)”: the “recombinant barcode read abundance (log10)” value turned out to be 0.136.
